In the first assay the test system is isolated rabbit thoracic aorta preparations. Briefly: Vessel relaxation in isolated rabbit thoracic aorta rings precontracted with noradrenaline. As to conditions: Oryctolagus cuniculus, read-out: Vessel Relaxation Data ED50.
Turning to `Cc1ncc2c(c1O)CO[C@H]2c1ccc(Cl)cc1`, the EC50 turned out to be 35.8 µM.

As for `Cc1ncc2c(c1OC(=O)C1C[C@H](O[N+](=O)[O-])[C@H](O[N+](=O)[O-])C1)CO[C@H]2c1ccc(Cl)cc1` (stereo partly drawn), the EC50 was determined as 6.29 µM.

`CO[C@H]1CC(C(=O)Oc2c(C)ncc3c2CO[C@H]3c2ccc(Cl)cc2)C[C@@H]1O[N+](=O)[O-]` (stereo partly drawn): the EC50 came to 18.8 µM.

For `CO[C@H]1C[C@H](C(=O)O)C[C@@H]1O[N+](=O)[O-]`, the EC50 turned out to be 126 µM.

In the case of `CC(=O)N[C@H](C(=O)O)C(C)(C)SN=O` (racemic) [SNAP, S-nitroso-N-acetylpenicillamine, reference compound], the EC50 turned out to be 0.237 µM.

The same assay, now with this note: Oryctolagus cuniculus, read-out: vessel relaxation EC50.
Consider `Cc1ncc2c(c1OC(=O)OC[C@@H]1C[C@H](O[N+](=O)[O-])[C@H](O[N+](=O)[O-])C1)COC2c1ccc(Cl)cc1` (stereo partly drawn) [Example 40], for which the EC50 is less than 50 µM.

Take `CO[C@H]1C[C@@H](C(=O)Oc2c(C)ncc3c2CO[C@H]3c2ccc(Cl)cc2)C[C@@H]1O[N+](=O)[O-]` [Example 60, (3S)-3-(4-chlorophenyl)-6-methyl-1,3-dihydrofuro[3,4-c]pyridin-7-yl(1R,3S,4S)-3-methoxy-4-(nitrooxy)cyclopentanecarboxylate]: the EC50 was less than 50 µM.

For `Cc1ncc2c(c1OC(=O)O[C@H]1CO[C@H]3[C@@H]1OC[C@H]3O[N+](=O)[O-])COC2c1ccc(Cl)cc1` (stereo partly drawn) [Example 45], the EC50 is less than 50 µM.

For the compound `Cc1ncc2c(c1OC(=O)OC[C@H]1C[C@H](O[N+](=O)[O-])[C@H](O[N+](=O)[O-])C1)COC2c1ccc(Cl)cc1` (stereo partly drawn) [Example 39], the EC50 is less than 50 µM.

The record behind these values is patent US8119806B2, “Cicletanine derivatives” (Merck Sharp & Dohme Corp., priority 2008, dated 2012).
